Assay results from ChEMBL document CHEMBL4251581, “Synthesis and antimycobacterial activity of triterpeni≿ A-ring azepanes” (Eur J Med Chem, 2018).
≈ marks a conversion by molar mass, not a printed value.

Legend:
[1] = system: Mycobacterium tuberculosis; experiment: Antimycobacterial activity against Mycobacterium tuberculosis H37Rv; format: functional, organism-based
[2] = system: Mycobacterium tuberculosis; experiment: Antimycobacterial activity against Mycobacterium tuberculosis H37Ra by microplate alamar blue assay; format: functional
[3] = system: Mycobacterium tuberculosis; experiment: Bactericidal activity against Mycobacterium tuberculosis H37Rv; format: functional
[4] = system: Mycobacterium tuberculosis; experiment: Antimycobacterial activity against p-aminosalicyclic acid-resistant Mycobacterium tuberculosis H37Rv ATCC 35821; format: functional
[5] = system: Mycobacterium tuberculosis; experiment: Antimycobacterial activity against Mycobacterium tuberculosis H37Rv after 7 days by microplate alamar blue assay; format: functional; details: 168 h
[6] = system: Mycobacterium tuberculosis; experiment: Antimycobacterial activity against Mycobacterium tuberculosis H37Rv ATCC 27294 by microplate alamar blue assay; format: functional
[7] = system: Mycobacterium tuberculosis; experiment: Antimycobacterial activity against Mycobacterium tuberculosis H37Rv ATCC 27294 after 5 days by microplate alamar blue assay; format: functional; details: H37Rv ATCC 27294, 120 h
[8] = system: Mycobacterium tuberculosis; experiment: Antimycobacterial activity against Mycobacterium tuberculosis H37Rv ATCC 27294 by BACTEC-460 radiometric susceptibility assay; format: functional

Structure (SMILES) | IC50 [1] | IC90 [1] | MIC [1] | also measured
CC1(C)CC[C@]2(COC(=O)CCC(=O)O)CC[C@]3(C)C(=CC[C@@H]4[C@@]5(C)CCCNC(C)(C)[C@@H]5CC[C@]43C)[C@H]2C1 | 20.6 µM | 82.5 µM | 100 µM (≈ 54.2 µg/mL) | –
C=C(C)[C@@H]1CC[C@]2(COC(=O)/C=C/c3ccc(OC)cc3)CC[C@]3(C)[C@H](CC[C@@H]4[C@@]5(C)CCCNC(C)(C)[C@@H]5CC[C@]43C)[C@@H]12 | 160 µM | > 200 µM | > 200 µM | –
CC1(C)CC[C@@]23CC[C@]4(C)C(OC2)(C(=O)C[C@@H]2[C@@]5(C)CCCNC(C)(C)[C@@H]5CC[C@]24C)[C@H]3C1 | 11 µM | 53 µM | 29 µM (≈ 13.2 µg/mL) | –
COC(=O)[C@]12CC[C@@H](C(C)CO)[C@@H]1[C@H]1CC[C@@H]3[C@@]4(C)CCC(=O)NC(C)(C)[C@@H]4CC[C@@]3(C)[C@]1(C)CC2 (some centres undefined) | 5.7 µM | 18.3 µM | 12.5 µM (≈ 6.27 µg/mL) | –
CC1(C)CC[C@]2(C(=O)O)CC[C@]3(C)C(=CC[C@@H]4[C@@]5(C)CC[C@H](OC(=O)/C=C/c6ccc(O)cc6)C(C)(C)[C@@H]5CC[C@]43C)[C@@H]2C1 | – | – | – | MIC [2]: 6.25 µg/mL (≈ 10.4 µM)
CC1(C)CC[C@]2(COC(=O)/C=C/c3ccccc3)CC[C@]3(C)C(=CC[C@@H]4[C@@]5(C)CCCNC(C)(C)[C@@H]5CC[C@]43C)[C@H]2C1 | 8 µM | 12 µM | 12 µM (≈ 6.86 µg/mL) | MBC [3]: 12 µg/mL (≈ 21 µM)
COC(=O)[C@]12CC[C@@H](C)[C@H](C)[C@@H]1C1=CC[C@@H]3[C@@]4(C)CCC(=O)NC(C)(C)[C@@H]4CC[C@@]3(C)[C@]1(C)CC2 | – | – | > 10 µM | –
CC(COC(=O)/C=C/c1ccccc1)[C@@H]1CC[C@]2(COC(=O)/C=C/c3ccccc3)CC[C@]3(C)[C@H](CC[C@@H]4[C@@]5(C)CCCNC(C)(C)[C@@H]5CC[C@]43C)[C@@H]12 (some centres undefined) | > 200 µM | > 200 µM | 200 µM (≈ 144 µg/mL) | –
C=C(C)[C@@H]1CC[C@]2(CO)CC[C@]3(C)[C@H](CC[C@@H]4[C@@]5(C)CCCNC(C)(C)[C@@H]5CC[C@]43C)[C@@H]12 | 10.9 µM | 12.4 µM | 10 µM (≈ 4.42 µg/mL) | MBC [3]: 10 µg/mL (≈ 22.6 µM); MIC [4]: 5 µg/mL (≈ 11.3 µM)
C/C(=N\O)[C@@H]1CC[C@]2(CO)CC[C@]3(C)[C@H](CC[C@@H]4[C@@]5(C)CCCNC(C)(C)[C@@H]5CC[C@]43C)[C@@H]12 | 43 µM | 41 µM | 43 µM (≈ 19.7 µg/mL) | –
COc1ccc(/C=C/C(=O)OC[C@]23CC[C@@H](C)[C@H](C)[C@@H]2C2=CC[C@@H]4[C@@]5(C)CCCNC(C)(C)[C@@H]5CC[C@@]4(C)[C@]2(C)CC3)cc1 | 1.8 µM | 2.5 µM | 3.12 µM (≈ 1.88 µg/mL) | MBC [3]: 12 µg/mL (≈ 19.9 µM)
COC(=O)[C@]12CCC(C)(C)C[C@@H]1C1=CC[C@@H]3[C@@]4(C)CCC(=O)NC(C)(C)[C@@H]4CC[C@@]3(C)[C@]1(C)CC2 | – | – | > 10 µM | –
C[C@H]1[C@H](C)CC[C@]2(COC(=O)CCC(=O)O)CC[C@]3(C)C(=CC[C@@H]4[C@@]5(C)CCCNC(C)(C)[C@@H]5CC[C@]43C)[C@@H]12 | 92 µM | 110 µM | 111 µM (≈ 60.1 µg/mL) | –
C[C@H]1[C@H](C)CC[C@]2(CO)CC[C@]3(C)C(=CC[C@@H]4[C@@]5(C)CCCNC(C)(C)[C@@H]5CC[C@]43C)[C@@H]12 | 4.9 µM | 14.5 µM | 12.5 µM (≈ 5.52 µg/mL) | MBC [3]: 20 µg/mL (≈ 45.3 µM)
CC(CO)[C@@H]1CC[C@]2(CO)CC[C@]3(C)[C@H](CC[C@@H]4[C@@]5(C)CCCNC(C)(C)[C@@H]5CC[C@]43C)[C@@H]12 (some centres undefined) | 4.6 µM | 14.1 µM | 12.5 µM (≈ 5.75 µg/mL) | –
C=C(C)[C@@H]1CC[C@]2(COC(=O)CCC(=O)O)CC[C@]3(C)[C@H](CC[C@@H]4[C@@]5(C)CCCNC(C)(C)[C@@H]5CC[C@]43C)[C@@H]12 | 40 µM | 70 µM | 61 µM (≈ 33.1 µg/mL) | MBC [3]: 11 µg/mL (≈ 20.3 µM)
C[C@H]1[C@H](C)CC[C@]2(COC(=O)/C=C/c3ccccc3)CC[C@]3(C)C(=CC[C@@H]4[C@@]5(C)CCCNC(C)(C)[C@@H]5CC[C@]43C)[C@@H]12 | 3.8 µM | 5.2 µM | 6.25 µM (≈ 3.57 µg/mL) | MBC [3]: 14 µg/mL (≈ 24.5 µM)
C=C(C)[C@@H]1CC[C@]2(COC(=O)/C=C/c3ccccc3)CC[C@]3(C)[C@H](CC[C@@H]4[C@@]5(C)CCCNC(C)(C)[C@@H]5CC[C@]43C)[C@@H]12 | 6.7 µM | 7.7 µM | 10 µM (≈ 5.72 µg/mL) | MBC [3]: 4 µg/mL (≈ 6.99 µM)
COC(=O)[C@]12CCC(C)(C)C[C@@H]1C1/C(=N/O)C[C@@H]3[C@@]4(C)CCC(=O)NC(C)(C)[C@@H]4CC[C@@]3(C)[C@]1(C)CC2 (some centres undefined) | 54 µM | 97 µM | 97 µM (≈ 49.9 µg/mL) | –
CC1(C)CC[C@]2(CO)CC[C@]3(C)C(=CC[C@@H]4[C@@]5(C)CCCNC(C)(C)[C@@H]5CC[C@]43C)[C@H]2C1 | 3.8 µM | 11.5 µM | 12.5 µM (≈ 5.52 µg/mL) | MBC [3]: 20 µg/mL (≈ 45.3 µM)
C=C(C)[C@@H]1CC[C@]2(C(=O)OC)CC[C@]3(C)[C@H](CC[C@@H]4[C@@]5(C)CCC(=O)NC(C)(C)[C@@H]5CC[C@]43C)[C@@H]12 | – | – | > 10 µM | –

Structure (SMILES) | IC50 [1] | IC90 [1] | MIC [1] | also measured
COC(=O)[C@]12CC[C@@H](C(C)COC(=O)/C=C/c3ccccc3)[C@@H]1[C@H]1CC[C@@H]3[C@@]4(C)CCC(=O)NC(C)(C)[C@@H]4CC[C@@]3(C)[C@]1(C)CC2 (some centres undefined) | > 200 µM | > 200 µM | > 200 µM | –
C=C(C)[C@@H]1CC[C@]2(CO)CC[C@]3(C)[C@H](CC[C@@H]4[C@@]5(C)CCCN(CCCN)C(C)(C)[C@@H]5CC[C@]43C)[C@@H]12 | – | – | > 10 µM | –
CC(=O)[C@@H]1CC[C@]2(CO)CC[C@]3(C)[C@H](CC[C@@H]4[C@@]5(C)CCCNC(C)(C)[C@@H]5CC[C@]43C)[C@@H]12 | 17.7 µM | 56.9 µM | 50 µM (≈ 22.2 µg/mL) | –
COc1ccc(/C=C/C(=O)OC[C@]23CCC(C)(C)C[C@@H]2C2=CC[C@@H]4[C@@]5(C)CCCNC(C)(C)[C@@H]5CC[C@@]4(C)[C@]2(C)CC3)cc1 | > 100 µM | > 100 µM | > 100 µM | –
COc1cc(/C=C/C(=O)O)ccc1O.C[C@H]1[C@H](C)CC[C@]2(C(=O)O)CC[C@]3(C)C(=CC[C@@H]4[C@@]5(C)CC[C@H](O)C(C)(C)[C@@H]5CC[C@]43C)[C@H]12 | – | – | – | MIC [2]: 3.13 µg/mL
COC(=O)[C@]12CC[C@@H](C(C)COC(=O)CCC(=O)O)[C@@H]1[C@H]1CC[C@@H]3[C@@]4(C)CCC(=O)NC(C)(C)[C@@H]4CC[C@@]3(C)[C@]1(C)CC2 (some centres undefined) | 23 µM | 27 µM | 28 µM (≈ 16.9 µg/mL) | –
C=C(C)[C@@H]1CC[C@]2(C(=O)O)CC[C@]3(C)[C@H](CC[C@@H]4[C@@]5(C)CC[C@H](OC(=O)/C=C/c6ccc(O)cc6)C(C)(C)[C@@H]5CC[C@]43C)[C@@H]12 | – | – | – | MIC [2]: 6.25 µg/mL (≈ 10.4 µM)
C[C@H]1[C@H](C)CC[C@]2(C(=O)O)CC[C@]3(C)C(=CC[C@@H]4[C@@]5(C)CC[C@H](OC(=O)/C=C/c6ccc(O)cc6)C(C)(C)[C@@H]5CC[C@]43C)[C@H]12 | – | – | – | MIC [2]: 6.25 µg/mL (≈ 10.4 µM)
C=C(C)[C@@H]1CC[C@]2(C(=O)O)CC[C@]3(C)[C@H](CC[C@@H]4[C@@]5(C)C[C@@H](O)[C@H](O)C(C)(C)[C@@H]5CC[C@]43C)[C@@H]12 [ALPHITOLIC ACID] | – | – | – | MIC90 [5]: 12.5 µg/mL (≈ 26.4 µM)
NCC[C@H](O)C(=O)N[C@@H]1C[C@H](N)[C@@H](O[C@H]2O[C@H](CN)[C@@H](O)[C@H](O)[C@H]2O)[C@H](O)[C@H]1O[C@H]1O[C@H](CO)[C@@H](O)[C@H](N)[C@H]1O [AMIKACIN] | 0.08 µM | 0.09 µM | 0.16 µM (≈ 0.0937 µg/mL) | –
C=C(C)[C@@H]1CC[C@]2(C(=O)O)CC[C@]3(C)[C@H](CC[C@@H]4[C@@]5(C)CC[C@H](O)C(C)(C)[C@@H]5CC[C@]43C)[C@@H]12 [BETULINIC ACID] | – | – | – | MIC [2]: 50 µg/mL (≈ 109 µM); MIC90 [5]: 25 µg/mL (≈ 54.7 µM); MIC [6]: 62 µg/mL (≈ 136 µM); MIC [7]: > 100 µg/mL
C=C(C)[C@@H]1CC[C@]2(CO)CC[C@]3(C)[C@H](CC[C@@H]4[C@@]5(C)CC[C@H](O)C(C)(C)[C@@H]5CC[C@]43C)[C@@H]12 [BETULIN] | – | – | – | MIC90 [5]: 25 to 30 µg/mL (≈ 56.5 to 67.8 µM)
N[C@@H]1CONC1=O [CYCLOSERINE] | 20.8 µM | 33.1 µM | 50 µM (≈ 5.1 µg/mL) | –
CC[C@@H](CO)NCCN[C@@H](CC)CO [ETHAMBUTOL] | 1.25 µM | 1.78 µM | 6.25 µM (≈ 1.28 µg/mL) | –
NNC(=O)c1ccncc1 [ISONIAZID] | 0.12 µM | 0.19 µM | 0.31 µM (≈ 0.0425 µg/mL) | –
C=C(C)[C@@H]1CC[C@]2(C)CC[C@]3(C)[C@H](CC[C@@H]4[C@@]5(C)CC[C@H](O)C(C)(C)[C@@H]5CC[C@]43C)[C@@H]12 [LUPEOL] | – | – | – | MIC90 [6]: > 64 µg/mL
CC1(C)CC[C@]2(C(=O)O)CC[C@]3(C)C(=CC[C@@H]4[C@@]5(C)CC[C@H](O)C(C)(C)[C@@H]5CC[C@]43C)[C@@H]2C1 [OLEANOLIC_ACID] | – | – | – | MIC [2]: 25 µg/mL (≈ 54.7 µM); MIC [7]: 50 µg/mL (≈ 109 µM)
CCc1nc(N)nc(N)c1-c1ccc(Cl)cc1 [PYRIMETHAMINE] | 23.3 µM | 35.9 µM | 50 µM (≈ 12.4 µg/mL) | –
CO[C@H]1/C=C/O[C@@]2(C)Oc3c(C)c(O)c4c(O)c(c(/C=N/N5CCN(C)CC5)c(O)c4c3C2=O)NC(=O)/C(C)=C\C=C\[C@H](C)[C@H](O)[C@@H](C)[C@@H](O)[C@@H](C)[C@H](OC(C)=O)[C@@H]1C [RIFAMPIN] | 0.02 µM | 0.03 µM | 0.04 µM (≈ 0.0329 µg/mL) | –
C[C@H]1[C@H](C)CC[C@]2(C(=O)O)CC[C@]3(C)C(=CC[C@@H]4[C@@]5(C)CC[C@H](O)C(C)(C)[C@@H]5CC[C@]43C)[C@H]12 [URSOLIC ACID] | – | – | – | MIC99 [8]: 50 µg/mL (≈ 109 µM); MIC99 [1]: 100 µg/mL (≈ 219 µM)
